According to patent publication US11992498B2, “Substituted N9-adenine derivatives, pharmaceutical compositions containing same and use thereof” (priority 2018, dated 2024):

What was measured:
Assay type in all cases: cell-based, mouse
AMPK = AMPK activation assay (ELISA ratio phosphorylated α-AMPK:total α-AMPK in C2C12 cells); settings: concentrations as low as 30 nanomolar, 4 hours of incubation
Method: C2C12 cells from the mouse muscle myoblastoma cell line (from Sigma-Aldrich) were seeded at a cell density of 10,000 cells per well in a 96-well plate in 200 μl of growth medium (high glucose DMEM, 10% foetal bovine serum […], penicillin and […]). The cells were allowed to grow until confluence and on the day of the assay they were incubated with the compound of interest in 100 μl of growth medium at 37° C. and 5% CO2 in an incubator for between 1 and 24 hours. All conditions were tested in quadruplicate. The compounds were administered dissolved in sterile anhydrous dimethyl sulphoxide at different concentrations. As a positive control for AMPK activation, an adenosine monophosphate (AMP) solution with a final concentration of […] was used. After the corresponding times, the medium was removed and the cells were carefully washed three times with PBS at room temperature and the Abcam Elisa kit was used to quantify the ratio of phosphorylated α-AMPK:total α-AMPK. The manufacturer's instructions were followed and the signal was quantified using a Licor Odissey® scanner.
The compounds selected as AMPK activators according to the criteria described above are used in glucose consumption tests and MTT cell viability tests.

C2C12 cells [1] = assay: Glucose consumption test (2-deoxyglucose uptake, luminometric) in C2C12 myotubes; settings: one hour incubation
Method: C2C12 cells of the mouse muscle myoblastoma cell line (from Sigma-Aldrich) were seeded at a cell density of 10,000 cells per well in a white 96-well plate compatible with the use of a luminometer. Cells were grown for 5 days in 200 μl/well of growth medium (high glucose DMEM, 10% foetal bovine serum […], penicillin and […]) in an incubator at 37° C. and 5% CO2. The medium was changed every two days. The medium was then replaced with a differentiation medium (low glucose DMEM, 2% […], penicillin and […]), allowing the cells to differentiate into myotubes for three days. The medium was changed every day. One day prior to testing, cells were serum starved (low glucose DMEM, penicillin and […]). The medium was then replaced by a DMEM medium without glucose and the compound N9-(3-diethylphosphonyl)phenyl-adenine was incubated for one hour at different concentrations, replicating the conditions in quadruplicate. The positive control consisted of 100 nanomolar human insulin solution (from Sigma). A Promega glucose consumption kit was used following the manufacturer's instructions. […]
Total luminescence was measured on a Biotek MX luminometric plate reader. […]

C2C12 cells [2] = assay: MTT cell viability/proliferation assay in C2C12 myotubes
Method: MTT Cell Viability/Proliferation Assay
The MTT redox assay is based on the metabolic reduction of bromide from 3-(4,5-dimethylthiazol-2-yl)-2,5-diphenyltetrazole (MTT) that is produced by the mitochondrial enzyme succinate-dehydrogenase, which colours the formazan dye blue, allowing to determine the mitochondrial functionality of the treated cells.
C2C12 cells were seeded at a density of 10,000 cells per well in a white 96-well plate compatible with the use of a luminometer. Cells were grown for 5 days in 200 μl/well of growth medium (high glucose DMEM, 10% FBS, penicillin and […]), with the medium being replaced every two days. Subsequently, the medium was replaced by a differentiation medium (low glucose DMEM, 2% NHS, penicillin and […]) and the cells were allowed to differentiate in myotubes for three days, the medium being changed every day. In all processes, cells were incubated at 37° C. and 5% CO2 in a cell incubator. The compound N9-(3-diethylphosphonyl)phenyl-adenine was incubated for 24 and 48 hours in low glucose DMEM without serum. […] After incubation, 10 μl of the MTT reagent (Abcam) was added to each well and, after 30 min, 45 min and 60 min of incubation, the absorbance at 490 nm was measured in a photometer with a Biotek TX plate reader. The reading is an indirect measure of the NAD(P)H enzyme dependent on cellular oxidase reductases. […]

N9-(3-diethylphosphonyl)phenyl-adenine
AMPK activity as % of that obtained with the AMP positive control (AMPK): greater than 500%
AMPK activity compared with the AMP positive control (AMPK): higher AMPK activity than the AMP positive control
Luminosity as % of the control (glucose consumption) (C2C12 cells [1]; 30 nanomolar, C2C12 myotubes): 125±9%
glucose consumption activity compared with insulin controls (C2C12 cells [1]; concentrations as low as 30 nanomolar, control 100 nanomolar human insulin): analogous to or greater than that of insulin controls
Luminosity as % of the control (MTT) (C2C12 cells [2]; 30 nanomolar, 48 hours incubation): 157±5%
MTT signal compared to controls (C2C12 cells [2]; nanomolar concentrations): significantly higher signal compared to controls
